Patent US10023563B2, “Cyclic compounds substituted by a condensed ring system” (BASF SE, priority 2014, dated 2018)

Legend:
Assay type in all cases: in vivo
[1] = system: Diamond Back Moth (Plutella xylostella); assay: Diamond back moth leaf-dip test; conditions: cabbage leaves dipped, 3rd instar larvae, 72 hours after treatment, read-out: mortality in comparison with untreated controls
Method: B.1 Diamond Back Moth (Plutella xylostella)
The active compound was dissolved at the desired concentration in a mixture of 1:1 (vol:vol) distilled water:aceteone. Surfactant (Kinetic HV) was added at a rate of 0.01% (vol/vol). The test solution was prepared at the day of use.
Leaves of cabbage were dipped in test solution and air-dried. Treated leaves were placed in petri dishes lined with moist filter paper and inoculated with ten 3rd instar larvae. Mortality was recorded 72 hours after treatment. Feeding damages were also recorded using a scale of 0-100%.

[2] = system: Green Peach Aphid (Myzus persicae); assay: Green peach aphid systemic test on artificial diet; conditions: 72 h, adult aphids on treated artificial diet, 3 days, read-out: mortality in comparison with untreated controls
From the text: B.2 Green Peach Aphid (Myzus persicae)
For evaluating control of green peach aphid (Myzus persicae) through systemic means the test unit consisted of 96-well-microtiter plates containing liquid artificial diet under an artificial membrane.
The compounds were formulated using a solution containing 75% v/v water and 25% v/v DMSO. Different concentrations of formulated compounds were pipetted into the aphid diet, using a custom built pipetter, at two replications.
After application, 5-8 adult aphids were placed on the artificial membrane inside the microtiter plate wells. The aphids were then allowed to suck on the treated aphid diet and incubated at about 23±1° C. and about 50±5% relative humidity for 3 days. Aphid mortality and fecundity was then visually assessed.

[3] = system: Vetch Aphid (Megoura viciae); assay: Vetch aphid broad bean leaf disk test; conditions: foliar, 120 h, sprayed leaf disks, adult aphids, 5 days, read-out: mortality in comparison with untreated controls
Method: B.3 Vetch Aphid (Megoura viciae)
For evaluating control of vetch aphid (Megoura viciae) through contact or systemic means the test unit consisted of 24-well-microtiter plates containing broad bean leaf disks.
The compounds were formulated using a solution containing 75% v/v water and 25% v/v DMSO. Different concentrations of formulated compounds were sprayed onto the leaf disks at 2.5 μl, using a custom built micro atomizer, at two replications.
After application, the leaf disks were air-dried and 5-8 adult aphids placed on the leaf disks inside the microtiter plate wells. The aphids were then allowed to suck on the treated leaf disks and incubated at about 23±1° C. and about 50±5% relative humidity for 5 days. Aphid mortality and fecundity was then visually assessed.

[4] = system: Tobacco Budworm (Heliothis virescens); assay: Tobacco budworm insect diet microtiter test; conditions: 120 h, egg and larval mortality on sprayed insect diet, 5 days, read-out: mortality in comparison with untreated controls
Method: B.4 Tobacco Budworm (Heliothis virescens)
For evaluating control of tobacco budworm (Heliothis virescens) the test unit consisted of 96-well-microtiter plates containing an insect diet and 15-25 H. virescens eggs.
The compounds were formulated using a solution containing 75% v/v water and 25% v/v DMSO. Different concentrations of formulated compounds were sprayed onto the insect diet at 10 μl, using a custom built micro atomizer, at two replications.
(§1) After application, microtiter plates were incubated at about 28±1° C. and about 80±5% relative humidity for 5 days. Egg and larval mortality was then visually assessed.

[5] = system: Boll Weevil (Anthonomus grandis); assay: Boll weevil insect diet microtiter test; conditions: 120 h, egg and larval mortality on sprayed insect diet, 5 days, read-out: mortality in comparison with untreated controls
Method: B.5 Boll Weevil (Anthonomus grandis)
For evaluating control of boll weevil (Anthonomus grandis) the test unit consisted of 96-well-microtiter plates containing an insect diet and 5-10 A. grandis eggs.
(§2) The compounds were formulated using a solution containing 75% v/v water and 25% v/v DMSO. Different concentrations of formulated compounds were sprayed onto the insect diet at 5 μl, using a custom built micro atomizer, at two replications.
After application, microtiter plates were incubated at about 25±1° C. and about 75±5% relative humidity for 5 days. Egg and larval mortality was then visually assessed.

[6] = system: Mediterranean Fruitfly (Ceratitis capitata); assay: Mediterranean fruitfly insect diet microtiter test; conditions: 120 h, egg and larval mortality on sprayed insect diet, 5 days, read-out: mortality in comparison with untreated controls
Method: B.6 Mediterranean Fruitfly (Ceratitis capitata)
as §2, with “For evaluating control of Mediterranean fruitfly (Ceratitis capitata) the test unit consisted of microtiter plates containing an insect diet and 50-80 C. capitata eggs. The” for “The”
as §1

[7] = system: Orchid Thrips (Dichromothrips Corbetti); assay: Orchid thrips floral-immersion test; conditions: dipped orchid petals, adult thrips, 72 hours after treatment, read-out: mortality in comparison with untreated controls
Method: B.7 Orchid Thrips (Dichromothrips Corbetti)
Dichromothrips corbetti adults used for bioassay were obtained from a colony maintained continuously under laboratory conditions. For testing purposes, the test compound is diluted in a 1:1 mixture of acetone:water (vol:vol), plus Kinetic HV at a rate of 0.01% v/v.
Thrips potency of each compound was evaluated by using a floral-immersion technique. All petals of individual, intact orchid flowers were dipped into treatment solution and allowed to dry in Petri dishes. Treated petals were placed into individual resealable plastic along with about 20 adult thrips. All test arenas were held under continuous light and a temperature of about 28° C. for duration of the assay. After 3 days, the numbers of live thrips were counted on each petal. The percent mortality was recorded 72 hours after treatment.

[8] = system: Rice Green Leafhopper (Nephotettix virescens); assay: Rice green leafhopper sprayed rice seedling test; conditions: sprayed potted rice seedlings, adults, after 72 hours, read-out: mortality in comparison with untreated controls
Method: B.8 Rice Green Leafhopper (Nephotettix virescens)
Rice seedlings were cleaned and washed 24 hours before spraying. The active compounds were formulated in 1:1 acetone:water (vol:vol), and 0.01% vol/vol surfactant (Kinetic HV) was added. Potted rice seedlings were sprayed with 5-6 ml test solution, air dried, covered with Mylar cages and inoculated with 10 adults. Treated rice plants were kept at about 28-29° C. and relative humidity of about 50-60%. Percent mortality was recorded after 72 hours.

[9] = system: Southern Armyworm (Spodoptera eridania); assay: Southern armyworm sprayed lima bean test; conditions: foliar, 96 h, sprayed lima bean foliage, larvae, 4 days after treatment, read-out: mortality in comparison with untreated controls
Method: B.10 Southern Armyworm (Spodoptera eridania)
The active compounds were formulated in cyclohexanone as a 10,000 ppm solution supplied in tubes. The tubes were inserted into an automated electrostatic sprayer equipped with an atomizing nozzle and they served as stock solutions for which lower dilutions were made in 50% acetone:50% water (v/v). A nonionic surfactant (Kinetic®) was included in the solution at a volume of 0.01% (v/v).
Lima bean plants (variety Sieva) were grown 2 plants to a pot and selected for treatment at the 1st true leaf stage. Test solutions were sprayed onto the foliage by an automated electrostatic plant sprayer equipped with an atomizing spray nozzle. The plants were dried in the sprayer fume hood and then removed from the sprayer. Each pot was placed into perforated plastic bags with a zip closure. About 10 to 11 armyworm larvae were placed into the bag and the bags zipped closed. Test plants were maintained in a growth room at about 25° C. and about 20-40% relative humidity for 4 days, avoiding direct exposure to fluorescent light (24 hour photoperiod) to prevent trapping of heat inside the bags. Mortality and reduced feeding were assessed 4 days after treatment, compared to untreated control plants.

O=C(CNC(=O)c1ccc(C2=CSC(c3cc(Cl)cc(Cl)c3)(C(F)(F)F)C2)c2c1CCC2)NCC(F)(F)F (stereo not drawn) [Compound 1-3, 7-[2-(3,5-Dichlorophenyl)-2-(trifluoromethyl)-3H-thiophen-4-yl]-N-[2-oxo-2-(2,2,2-trifluoroethylamino)ethyl]indane-4-carboxamide]
≥ 75%: mortality at 300 ppm [1] | mortality at 2500 ppm [2] | mortality at 2500 ppm [3] | mortality at 2500 ppm [4] | mortality at 2500 ppm [5] | mortality at 2500 ppm [6] | mortality at 300 ppm [7] | mortality at 2500 ppm [8] | mortality at 10 ppm [9]
